How the values were obtained:
mixed culture = assay: Growth experiments with various carbon sources; type: cell-based; conditions: 24 mM substrate, 10 mM chlorate, 30° C., turbidity; further: key: ++: Extensive growth; +: Growth (based on turbidity of culture); +/−: Slight increase in turbidity
Procedure: Growth of the mixed culture with different carbon and energy sources was determined in 100 ml serum bottles with gas-tight caps filled up to 75% of their volume with mineral salts medium and 24 mM of the substrate and incubated at 30° C. Chlorate was added at a concentration of 10 mM. Growth was followed by determination of the turbidity (visually). The cultures were made anoxic by being flushed with nitrogen gas for approximately 5 minutes. Growth was followed for a maximum period of 2 months.

[1] = test system: micro-organisms immobilised on pumice particles; assay: Bacterial growth inhibition test with sulfite; type: cell-based; conditions: 5 days
Procedure: (§1) Batch experiments were conducted in 110 ml gas-tight glass vessels, which were filled with 10 ml of mineral medium. The gas-phase and the medium in the vessels were flushed with nitrogen. Hydrogen gas was supplied by injection of a known amount using a gas-tight syringe (up to 150 kPa). Vessels were incubated at 30° C. in a shaking water bath. Micro-organisms immobilised on pumice particles were withdrawn from the gas-lift reactor whenever steady state conditions were reached and washed twice with phosphate buffer (20 mM) before use. These immobilised micro-organisms were used to inoculate the cultures. Various salt concentrations in the batch cultures were obtained by adding various amounts of sodium chloride. Sodium sulfite was added to cultures in various amounts from a freshly prepared stock solution. The test vessels for the growth experiments were inoculated by injecting 5 ml of effluent from the reactor. The micro-organisms in the effluent were washed three times with phosphate buffer (20 mM) and concentrated to 0.5 ml by centrifugation (10,000 g, 15 min). 4.4 Analytical Procedures
Besides chlorate and […] the waste water also contains small amounts of hypochlorite. Since hypochlorite is a biocide, removal of this compound before biological treatment is necessary. Hypochlorite can be removed instantly from the waste water using sulfite as reductant. This procedure could be used prior to the biological treatment. To examine whether sulfite is toxic to micro-organisms immobilised on the pumice particles, a toxicity test was performed. Growth was determined after 5 days, and was compared to a control culture without sulfite. The growth was determined by measuring the formation of chloride.

[2] = test system: micro-organisms immobilised on pumice particles; assay: Influence of high salt concentration on microbial activity (batch); type: cell-based
Procedure: as §1
The effect of increased salt concentration in the reactor was investigated in batch experiments. The activity of the micro-organisms immobilised on pumice particles in the batch experiment decreased only slightly with increasing salinity, as indicated in FIG. 19. […]

[3] = test system: chlorate-reducing mixed culture; conditions: up to a concentration of 12 mM, separate experiments
Procedure: These cultures were inoculated with 1 ml of an exponentially growing culture. […] These cultures were anaerobically incubated at 30° C. in a water bath. The turbidity was measured using a Nephelometer (Hack Ratio XR, Loveland, USA). The turbidity was plotted against time for each of the concentrations and the control. The growth was derived from the slope of the regression line in a plot of In OD 660 versus time. The percentage inhibition of the growth at each concentration was calculated. […] Confidence limits were calculated on the basis of Fieller's theorem. All computations were performed using a statistical software program (SAS, Cary, N.C., USA).
Growth was followed for approximately 8 hours.

Structure (SMILES) | Growth (mixed culture) | also measured
O=C(O)CCC(=O)O [succinate] | ++ | –
NCC(=O)O [glycine] | +/− | –
O=S([O-])[O-].[Na+].[Na+] [Sulfite, sodium sulfite] | – | Growth inhibition ([1]; sulfite 15 mg/l): 4%; Growth inhibition ([1]; sulfite 45 mg/l): 0%; Growth inhibition ([1]; sulfite 135 mg/l): 6%; Growth inhibition ([1]; sulfite 405 mg/l): 7%
O=C(O)CC(O)C(=O)O (centres unmarked) [malate] | ++ | –
CC(=O)O [acetate] | ++ | –
[Cl-].[Na+] [sodium chloride] | – | effects of increased salinity on activity ([2]; 40 g/l): substantial; activity (chlorate reduction) relative to the maximum ([2]; concentration of 30 μl sodium chloride, unacclimatised micro-organisms): more than 80%
CC(O)C(=O)O (centres unmarked) [lactate] | + | –
CCC(=O)O [propionate] | ++ | –
CCO [ethanol] | ++ | –
[O-][Cl+2]([O-])O [chlorate] | – | toxicity to the mixed culture [3]: not toxic
